Molecular target: T1, GPR120 (Homo sapiens, UniProt Q5NUL3)
T1 construct: expressed in transfected cells; host or cells: CHO mitoPhotinaGPR120 cells
T1 sequence (Q5NUL3 1-361): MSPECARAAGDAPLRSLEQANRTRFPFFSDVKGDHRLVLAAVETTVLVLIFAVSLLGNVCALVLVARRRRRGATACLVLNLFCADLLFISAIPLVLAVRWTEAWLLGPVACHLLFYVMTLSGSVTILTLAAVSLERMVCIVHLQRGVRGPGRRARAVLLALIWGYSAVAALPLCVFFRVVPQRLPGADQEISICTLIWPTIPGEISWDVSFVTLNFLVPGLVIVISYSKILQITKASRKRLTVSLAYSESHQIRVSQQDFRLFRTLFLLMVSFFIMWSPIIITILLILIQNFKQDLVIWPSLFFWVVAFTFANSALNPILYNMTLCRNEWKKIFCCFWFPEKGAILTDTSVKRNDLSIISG
Assay: GPR120 agonism in CHO mitoPhotinaGPR120 cell based assay with fluorescent (Fluo-8 calcium, FLIPRTetra) readout, Agonist Mode, dose response
Settings: CHO mitoPhotinaGPR120 cells, Fluo-8 No Wash Ca2+ dye, dose response in quadruplicate, 0.0033% fatty acid free BSA

Compound | EC50 [µM]
Cc1nn(-c2ccc(F)cn2)c(COc2c(F)cc(CCCO)cc2F)c1C#N [Example 164, 5-[[2,6-difluoro-4-(3-hydroxypropyl)phenoxy]methyl]-1-(5-fluoro-2-pyridyl)-3-methyl-pyrazole-4-carbonitrile] | 0.19
Cc1ccc(-n2nc(C)c(C#N)c2COc2c(F)cc(CCCO)cc2F)nc1 [Example 165, 5-[[2,6-difluoro-4-(3-hydroxypropyl)phenoxy]methyl]-3-methyl-1-(5-methyl-2-pyridyl)pyrazole-4-carbonitrile] | 0.17
Cc1nn(-c2ccc(Cl)cn2)c(COc2c(F)cc(CCCO)cc2F)c1C#N [Example 166, 1-(5-chloro-2-pyridyl)-5-[[2,6-difluoro-4-(3-hydroxypropyl)phenoxy]methyl]-3-methyl-pyrazole-4-carbonitrile] | 0.22
COc1ccc(-n2nc(C)c(C#N)c2COc2c(F)cc(CCCO)cc2F)nc1 [Example 167, 5-[[2,6-difluoro-4-(3-hydroxypropyl)phenoxy]methyl]-1-(5-methoxy-2-pyridyl)-3-methyl-pyrazole-4-carbonitrile] | 0.21
COc1ccc(S(=O)(=O)Nc2c(C)cc(C)cc2C)cc1 [GSK137639A, reference compound] | 4.48
